Laboratory results published in paper PMC12530851, “Design, synthesis, and apoptotic antiproliferative activity of novel dihydropyrimidine-5-carbonitrile/1,2,4-oxadiazole hybrids as dual EGFR/VEGFR-2 inhibitors endowed with antioxidant activity” (RSC Advances, 2025).

What was measured:
Bax = Bax activation assay in MCF-7 cells; format: cell-based, human; conditions: for Bax Fold change: vs untreated control
Method: Compounds10k and 10l were tested as caspases-3, 8, 9, Bax and p53 activators and as down-regulators of the anti-apoptotic protein Bcl2 against the MCF-7 breast cancer cell line.[41] Appendix A gives more details.
The Bcl-2 protein family, which includes pro-apoptotic proteins (Bax) and anti-apoptotic proteins (Bcl-2), primarily regulates apoptosis.[46] […] Consequently, we assessed the expression levels of Bcl-2 and Bax proteins in MCF-7 breast cancer cells treated with compounds 10k and 10l, Table 6. […]
Cells were obtained from American Type Culture Collection, cells were grown in RPMI 1640 containing 10% fetal bovine serum at 37°C, stimulated with the compounds to be tested for caspase 8/9, and lysed with Cell Extraction Buffer. This lysate was diluted in Standard Diluent Buffer over the range of the assay and measured for human active caspase-8/9 content. (Cells are Plated in a density of 1.2 – 1.8 × 10,000 cells/well in a volume of 100µl complete growth medium + 100 ul of the tested compound per well in a 96-well plate for 24 hours before the enzyme assay). […]
4.2.7. Bax activation assay
Bring all reagents, except the human Bax-α Standard, to room temperature for at least 30 minutes prior to opening. The human Bax-α Standard solution should not be left at room temperature for more than 10 minutes. All standards, controls and samples should be run in duplicate. Refer to the Assay Layout Sheet to determine the number of wells to be used and put any remaining wells with the desiccant back into the pouch and seal the ziploc. Store unused wells at 4 °C. Pipet 100 μL of Assay Buffer into the S0 (0 pg/mL standard) wells. Pipet 100 μL of Standards #1 through #6 into the appropriate wells. Pipet 100 μL of the Samples into the appropriate wells. Tap the plate gently to mix the contents. Seal the plate and incubate at room temperature on a plate shaker for 1 hour at ~500 rpm. Empty the contents of the wells and wash by adding 400 μL of wash solution to every well. Repeat the wash 4 more times for a total of 5 washes. After the final wash, empty or aspirate the wells and firmly tap the plate on a lint free paper towel to remove any remaining wash buffer.
Pipet 100 μL of yellow Antibody into each well, except the Blank. Seal the plate and incubate at room temperature on a plate shaker for 1 hour at ~500 rpm. Empty the contents of the wells and wash by adding 400 μL of wash solution to every well. Repeat the wash 4 more times for a total of 5 washes. […]
Pipet 100 μL of Substrate Solution into each well. […] Blank the plate reader against the Blank wells, read the optical density at 450 nm. […]
The concentration of Bax in the unknowns can be determined by interpolation. […]

[1] = Cell viability assay (MTT) on normal MCF-10A cells; format: cell-based; conditions: human, MCF-10A mammary gland epithelial cells (normal cell line), MCF-10A normal cells, four-day incubation
Method: The impact of novel compounds 10a–l on the viability of a normal human cell line, specifically human mammary gland epithelial cells (MCF-10A), was assessed to ascertain the safety of the newly synthesized compounds. The MTT test was employed to assess the cell viability of the novel compounds after a four-day incubation with MCF-10A cells.[29,37] Refer to Appendix A for more experimental details.
The effect of new compounds 10a–l on the viability of a normal human cell line, namely human mammary gland epithelial cells (MCF-10A), was evaluated to determine the safety of the newly synthesized compounds.
4.2. Biological evaluation
4.2.1 Cell Viability assay (MTT assay)
MTT assay was performed to investigate the effect of the synthesized compounds on mammary epithelial cells (MCF-10A). The cells were propagated in medium consisting of Ham's F-12 medium/ Dulbecco's modified Eagle's medium (DMEM) (1:1) supplemented with 10% foetal calf serum, 2 mM glutamine, insulin (10 μg/mL), hydrocortisone (500 ng/mL) and epidermal growth factor (20 ng/mL). Trypsin ethylenediamine tetra acetic acid (EDTA) was used to passage the cells after every 2-3 days. 96-well flat-bottomed cell culture plates were used to seed the cells at a density of 10^4 cells mL-1. The medium was aspirated from all the wells of culture plates after 24 h followed by the addition of synthesized compounds (in 200 μL medium to yield a final concentration of 0.1% (v/v) dimethyl sulfoxide) into individual wells of the plates. Four wells were designated to a single compound. The plates were allowed to incubate at 37°C for 96 h. Afterwards, the medium was aspirated and 3-[4,5-dimethylthiazol-2-yl]-2,5-diphenyltetrazolium bromide (MTT) (0.4 mg/mL) in medium was added to each well and subsequently incubated for 3 h. The medium was aspirated and 150 μL dimethyl sulfoxide (DMSO) was added to each well. The plates were vortexed followed by the measurement of absorbance at 540 nm on a microplate reader. […]

Row | SMILES | Bax (Bax) [pg/mL] | Bax Fold change (Bax) [fold] | viability at 96 h, 50 µM [1] [%]
1 | COc1ccc(-c2nc(SCc3nc(-c4ccc(Cl)cc4)no3)[nH]c(=O)c2C#N)cc1 [Compound 10k, 2-(((3-(4-Chlorophenyl)-1,2,4-oxadiazol-5-yl)methyl)thio)-4-(4-methoxyphenyl)-6-oxo-1,6-dihydropyrimidine-5-carbonitrile] | 545 ± 3 | 9 | 90
2 | COc1ccc(-c2noc(CSc3nc(-c4ccc(OC)cc4)c(C#N)c(=O)[nH]3)n2)cc1 [Compound 10l, 2-(((3-(4-Methoxyphenyl)-1,2,4-oxadiazol-5-yl)methyl)thio)-4-(4-methoxyphenyl)-6-oxo-1,6-dihydropyrimidine-5-carbonitrile] | 505 ± 3 | 8 | 91
